According to US8119599B2, “Direct application of non-toxic crosslinking reagents to resist progressive spinal degeneration and deformity” (Orthopeutics, L.P., priority 2001, dated 2012):
Several values for one entry are separate records, joined by “and”; a condition that tells them apart may be missing. Equal entries are not always repeated.

Key:
[1] = test system: posterior intervertebral disc (lumbar intervertebral joints); assay: Indentation stress relaxation of posterior annulus before and after compression/flexion fatigue cycling; set-up: species or system calf; settings: for change in relaxation due to 6000 fatigue cycles versus controls (fatigue resistance): 72 hours soaking (G1 0.033%, G2 0.33% Genipin in PBS), 6000 cycles at 200 N, 0.25 Hz; for initial pre-fatigue relaxation less than the pre-fatigue relaxation of the controls: 72 hours soaking in PBS with Genipin (G1 0.033%, G2 0.33%), before fatigue cycling
Protocol: (§1) Thirty-three lumbar intervertebral joints were obtained from ten four-month-old calf spines. The intervertebral joints were arbitrarily divided into 3 groups: untreated controls-12 specimens, Genipin treatment 1 (G1)-6 specimens, and Genipin treatment 2 (G2)-13 specimens. The G1 treatment involved 72 hours of soaking the whole specimen in PBS with a 0.033% concentration of Genipin. Similarly the G2 treatment involved 72 hours of soaking whole specimens in PBS with 0.33% concentration of Genipin. 0.33% Genipin in PBS is produced by dilution of 50 ml of 10 times. PBS (Phosphate Buffered Saline) with distilled water by a factor of 10 to give 500 ml (500 gm) of PBS and mixing in 1.65 grams of genipin to produce the 0.33% (wt %, gm/gm) solution. […] Some controls were not subjected to soaking prior to fatigue testing. Others were soaked in a saline solution for 72 hours. Water mass loss experiments were conducted to establish the equivalency of outer annulus hydration between the genipin soaked and 0.9% saline soaked controls. The selection of treatments was randomized by spine and level. The vertebral ends of the specimens were then potted in polyurethane to facilitate mechanical testing. At the prescribed points in the loading regimen, indentation testing was used to find viscoelastic properties as follows. Stress relaxation data was gathered by ramp loading the 3 mm diameter hemi-spherical indenter to 10 N and subsequently holding that displacement for 60 s, while recording the resulting decrease in stress, referred to as the stress relaxation. Indentation testing was also utilized to determine elastic-plastic properties by calculating a hardness index (resistance to indentation) from ramp loading data. Prior to recording hardness measurements, the tissue is repeatedly indented 10 times (60 s/cycle, to the displacement at an initial 10 N load). This test protocol is based on two principles. First, viscoelastic effects asymptotically decrease with repeated loading. Secondly, hardness measurements are sensitive to the loading history of the tissue. However this effect becomes negligible following 10 loading cycles. In order to minimize these effects, viscoelastic data (stress relaxation) was collected from tissue that had not previously been indented. Alternately, elastic-plastic data (hardness) was collected from tissue that had been repeatedly loaded (preconditioned). In this case, repetitive indentation was intended to reduce the undesired effects of the changing viscoelastic properties, namely lack of repeatability, on hardness measurements. These testing procedures were derived from several preliminary experiments on the repeatability of the measurements with variations of loading history and location. Following initial indentation testing, the specimen was loaded repetitively in flexion-compression at 200 N for 3000 cycles at a rate of 0.25 Hz. The load was applied perpendicularly to the transverse plane, 40 mm anterior to the mid-point of the specimen in the transverse plane. A second set of indentation testing data is then collected following fatigue cycling. This procedure was followed for two fatigue loading cycles. During all testing, the specimens were wrapped in saline wetted gauze to maintain their moisture content. […] Several statistical measures were calculated to evaluate the significance of the results. […]

[2] = test system: calf spine segments (intervertebral disc annular tissue); assay: Four-point lateral bending test of spine segments after unilateral injection of crosslinking reagent; settings: for Change in Stiffness: Compression side / Change in Stiffness: Tensionon side: neutral zone bending stiffness versus pre-treatment control; for Change in Stiffness: Compression side: treated side in compression; for Change in Stiffness: Tensionon side / Loss of Hysteresis: treated side in tension; for Loss of Hysteresis: versus pre-treatment control of same specimen
Source text: Experiments utilized 5 calf spine segments, each segment comprised of 3 lumbar intervertebral joints (motion segments), four vertebrae and the intervening 3 discs. The pedicles were cut and the posterior processes removed. The segments were randomly divided into a 0.33% by weight genipin crosslinked group, a 0.5% genipin group, a 0.66% genipin group, and a 0.66% genipin plus 0.1% proanthocyanidin group. Each group consisted of one 3 motion segment specimen. Each pre-treated spine served as its own control. Repeated testing was performed on some untreated and treated specimens to determine repeatability of the measurements. Additional appropriate concentrations and combinations of known minimally cytotoxic crosslinking reagents will be chosen based on the documented cytotoxicity of a particular tissue. […] Similar testing will be conducted on fresh-non-frozen animal tissue with appropriate sterilization procedures and antibiotics to prevent tissue degradation. Sugar solutions will be injected unilaterally into fresh intervertebral discs to induce non-enzymatic glycation crosslinks over a period of sterile incubation.
Four-point lateral bending tests were conducted using an MTS 858 materials testing system with custom fixtures while load and displacement were recorded digitally. First the specimens were cleaned of muscle and other non-load supporting tissues, and then the terminal vertebrae were potted in polyurethane to half their height in square molds. The potted spine segments are then placed on the bottom 2 rollers such that the lateral sides of the spines were positioned in a vertical plane. The bending load was actuated by 2 upper rollers in contact with the central two vertebrae of the segment. Care was taken to ensure that the pre- and post-treatment positioning of the specimens on the rollers was similar. As an attribute of 4-point bending, the central region of the test specimen, including the central disc between the 2 upper rollers, has an […] bending moment. A ramp load to 100 N (0.5 mm/s) was applied in right and left lateral bending to each spine both prior to treatment and after crosslinking treatment.
The crosslinking reagents were delivered to each of the discs in each spine specimen by 2 to 3 injections into one lateral side of the spine. Each injection was comprised of 1 cc of reagent. A 26 gauge hypodermic needle was used. The treated segments were allowed to sit in a closed container wrapped in moist paper towels for 36 hours prior to final testing. After testing, the discs were cut transversely to visually document the region of the tissue contacted by the reagents.
Resistance to lateral bending and lateral bending stability were assessed by two measures, one elastic-plastic, the other viscoelastic. The first was the neutral zone (low-load) bending stiffness evidenced by the amount of deformation from 0.1 to 100 N of deforming force. The second was the hysteresis or bending energy lost or not stored by the tissues. Less hysteresis, or a lower percentage of hysteresis compared to strain energy or the amount of bending energy stored and returned, corresponds to greater capacity to bounce back from a bend rather than remain in the deformed position. It also reflects a more elastic, spring-like response as compared to a more viscous response.

[3] = test system: posterior intervertebral disc (lumbar intervertebral joints); assay: Indentation hardness of posterior annulus before and after compression/flexion fatigue cycling; set-up: species or system calf
Protocol: as §1, with “measurements.” for “measurements. These testing procedures were derived from several preliminary experiments on the repeatability of the measurements with variations of loading history and location. Following initial indentation testing, the specimen was loaded repetitively in flexion-compression at 200 N for 3000 cycles at a rate of 0.25 Hz. The load was applied perpendicularly to the transverse plane, 40 mm anterior to the mid-point of the specimen in the transverse plane. A second set of indentation testing data is then collected following fatigue cycling. This procedure was followed for two fatigue loading cycles. During all testing, the specimens were wrapped in saline wetted gauze to maintain their moisture content.”

COC(=O)C1=CO[C@@H](O)[C@@H]2C(CO)=CC[C@H]12 [G1, Genipin]
change in relaxation due to 6000 fatigue cycles versus controls (fatigue resistance) [1]: did not bring about the same improvement in fatigue resistance
initial pre-fatigue relaxation less than the pre-fatigue relaxation of the controls [1]: 26%

COC(=O)C1=CO[C@@H](O)[C@@H]2C(CO)=CC[C@H]12 [0.33G, genipin]
Change in Stiffness: Compression side [2]: 29%
Change in Stiffness: Tensionon side [2]: 17%
Loss of Hysteresis [2]: 35%

COC(=O)C1=CO[C@@H](O)[C@@H]2C(CO)=CC[C@H]12 [0.50G, genipin]
Change in Stiffness: Compression side [2]: −12% and −22%
Change in Stiffness: Tensionon side [2]: 8% and 0.43%

COC(=O)C1=CO[C@@H](O)[C@@H]2C(CO)=CC[C@H]12 [0.66G, genipin]
Change in Stiffness: Compression side [2]: 8%
Change in Stiffness: Tensionon side [2]: 6%
Loss of Hysteresis [2]: 20%

COC(=O)C1=CO[C@@H](O)[C@@H]2C(CO)=CC[C@H]12 [G2, Genipin]
persistence of hardness improvement under fatigue cycling ([3]; 0.33% Genipin soak, up to 3000 fatigue cycles): appears to have eroded prior to 3000 fatigue cycles
change in hardness between 3000 and 6000 cycles ([3]; G2: 0.33% Genipin, Brinnell's hardness index): −0.94
initial pre-fatigue hardness greater than that of the control group ([3]; G2: 72 hours soaking in PBS with 0.33% Genipin, before fatigue cycling): 17%
change in relaxation due to 6000 fatigue cycles versus controls (fatigue resistance) [1]: less than a third of the change in the controls
initial pre-fatigue relaxation less than the pre-fatigue relaxation of the controls [1]: 19%
